From PubChem BioAssay (NCI) come the findings set out here.

Structures are written as SMILES.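 Five concentrations, 48 hours, 96-well plates. At the TGI there is no net growth.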 A value given as a limit tells only on which side of the number the result lay.

Experiment in all cases: NCI-60 cell line screen, 48 h
Assay [1] has as its system HCC-2998 colon.
Assay [2] deals with LOX IMVI melanoma.
In assay [3] the test system is OVCAR-5 ovarian.
Assay [4] deals with HOP-62 NSCLC.
For assay [5], the system named is M14 melanoma.
The subject of assay [6] is NCI-H460 lung.
The subject of assay [7] is UO-31 renal.
Assay [8] relates to SN12C renal.
The test system of assay [9] is IGROV1 ovarian.
Assay [10] concerns UACC-62 melanoma.
Assay [11] deals with MALME-3M melanoma.
Assay [12] relates to NCI-H522 lung.
In assay [13] the test system is U251 CNS.
In assay [14] the test system is SK-MEL-5 melanoma.
Assay [15] relates to RXF 393 renal.
Assay [16] relates to BT-549 breast.
The subject of assay [17] is MCF7 breast.
The test system of assay [18] is DU-145 prostate.

Regarding `CN(C(=O)C12C3C4C1C1C2C3C41I)C(C)(C)C` (stereo not drawn), the TGI in assay [1], in [2], in assay [3], in [4], in assay [5] and in [6] was greater than 100 µM each time. In addition, the TGI in assay [7], in [8], in [9], in assay [10], in assay [11] and in assay [12] was greater than 100 µM each time. The TGI in [13] and in [14] was greater than 100 µM throughout.

As to `CN(C)c1ccc(/C=C/C=C\C2=CC(=C\C=C/C=C3C=CC(=[N+](C)C)C=C3)/Sc3ccccc32)cc1`, the TGI in [2] is 64.1 µM; in assay [3], greater than 100 µM; in assay [4] it was greater than 100 µM; in assay [5], 27.5 µM; in assay [6], greater than 100 µM; in assay [7] it was greater than 100 µM. Moreover, the TGI is greater than 100 µM in assay [8]; greater than 100 µM in [10]; greater than 100 µM in assay [11]; 32.7 µM in assay [15]; greater than 100 µM in [14].

As for `NC(=S)NNC(=O)/C(=C/c1ccc(/C=C(\NC(=O)c2ccccc2)C(=O)NNC(N)=S)cc1)NC(=O)c1ccccc1`, the TGI in [1], in assay [2], in [3], in assay [4], in assay [5] and in assay [6] was greater than 100 µM each time. In addition, the TGI in assay [7], in [8], in assay [9], in assay [10], in assay [11] and in assay [15] was greater than 100 µM throughout. Besides, the values for the TGI in [12], in [13] and in [14] were greater than 71.1 µM, greater than 100 µM and greater than 100 µM, respectively.

`CC(=O)OCC(=O)[C@@]1(O)CC[C@H]2[C@@H]3CCC4=CC(=O)[C@H](C)C[C@]4(C)[C@H]3[C@@H](O)C[C@@]21C`: the TGI in assay [1], in assay [2], in assay [3], in assay [4], in [5] and in assay [6] was greater than 100 µM throughout. Besides, the TGI in assay [8], in assay [9], in assay [10], in assay [11], in [12] and in assay [13] was greater than 100 µM in each case. The TGI in assay [14] was greater than 100 µM.

As to `COc1cc(/C=C/C(=O)c2sc(-n3nc(-c4ccccc4)cc3-c3ccccc3)nc2C)ccc1O`, the TGI in [1], in [2], in assay [3], in [4], in [6] and in assay [7] was greater than 100 µM throughout. In addition, the TGI in assay [8], in assay [9], in assay [10], in assay [11], in assay [15] and in [12] was greater than 100 µM throughout. The TGI in assay [13] and in assay [14] was greater than 100 µM in each case.

Turning to `O=C(NO)c1ccc([N+](=O)[O-])cc1`, the TGI in assay [1], in [2], in assay [4], in [5], in assay [6] and in assay [7] was greater than 100 µM throughout. In addition, the TGI in assay [8] was greater than 100 µM; in assay [9], greater than 100 µM; in assay [10], 50.5 µM; in [11], greater than 100 µM; in [15] it was 71.8 µM; in assay [12], 97.2 µM. The TGI in assay [13] and in assay [14] was greater than 100 µM in each case.

Take `COc1cc(NC(C)=O)c2[nH]c3c(C)cc(NC(C)=O)c(C)c3c2c1`: the TGI in assay [1], in assay [5], in assay [6], in assay [7], in assay [8] and in assay [9] was greater than 100 µM in each case. Moreover, the TGI in assay [15], in assay [12], in [13] and in [14] was greater than 100 µM each time.

For the compound `O=C(c1ccc(Cl)cc1Cl)N(C(=O)N1CCC(c2ccccc2)CC1)c1ccccc1`, the TGI in [1], in [2], in assay [16], in assay [3], in assay [4] and in [5] was greater than 100 µM in each case. Also, the TGI in assay [17], in [6], in [7], in assay [8], in [9] and in [10] was greater than 100 µM each time. For the same compound, the TGI in assay [18], in assay [13] and in [14] was greater than 100 µM throughout.

As for `CCOC(=O)CSc1ccnc(=O)[nH]1`, the TGI in [2], in [3], in [5], in [6], in assay [7] and in assay [8] was greater than 100 µM in each case. The TGI in assay [9], in assay [10], in assay [11], in assay [15], in assay [12] and in assay [13] was greater than 100 µM each time. Further, the TGI in assay [14] was greater than 100 µM.

Consider `CCCCCCn1c(SCC)c2ccccc2c1-c1nc(F)nc(F)n1`, for which the TGI in [1], in assay [2], in assay [3], in assay [4], in assay [5] and in assay [6] was greater than 100 µM throughout. Also, the TGI in assay [7], in assay [8], in [9], in assay [11], in assay [15] and in assay [12] was greater than 100 µM throughout. Further, the TGI in assay [13] and in assay [14] was greater than 100 µM throughout.
